Values after ≈ are worked out from the molar mass of the structure shown. Like-named read-outs stand apart in the source and are kept apart here.
Experiments:
[1] = tested on: Brassica napus L.; assay: Pre-emergence herbicidal inhibition assay, Petri dish test, BN; assay type: in vivo; settings: for EC50: Brassica napus, 168 h; for Relative activity ratio (BN root) / Relative activity ratio (BN stalk): relative to FOS
Experimental: (§1) The pre-emergence activity of the compounds against monocot Echinochloa crus-galli (EC) and dicot Brassica napus L. (BN) was evaluated using the standard Petri dish test. The compounds were dissolved in DMF, emulsified with Tween-80 and diluted with water to form stock solutions, each of which was further diluted to a gradient of 100, 50, 25, 10 and 1 mg/L for test. The test solutions were added to Petri dishes lined with a filter paper, on which 10 seeds of EC and BN were placed. After cultured in an intelligent climate chamber with a humidity of 65% at 26 °C for 7 days, the corresponding EC50 values were calculated.

[2] = tested on: Echinochloa crus-galli; assay: Pre-emergence herbicidal inhibition assay, Petri dish test, EC; assay type: in vivo; settings: for EC50: Echinochloa crus-galli, 168 h; for Relative activity ratio (EC root) / Relative activity ratio (EC stalk): relative to FOS
Experimental: as §1

[3] = tested on: Amaranthus retroflexus; assay: Post-emergence herbicidal inhibition assay, AR; assay type: in vivo; settings: 300 g ai/ha spray, two weeks after treatment; for Loss of Weight (%) AR: fresh weighing
Experimental: (§2) The post-emergence activity of compounds against EC and Amaranthus retroflexus (AR) was determined at a dose of 300 g ai/ha. The model plants initially grow as seedlings, and a few days prior to treatment, five seedlings with similar growth conditions for the plant were transplanted into one pot containing nutrient soil. The test solutions were prepared by dissolving the compounds in water containing DMF and Tween-80 and sprayed when the plant grew to the 1~2 leaf stage. The herbicidal activity was evaluated via visual observation and fresh weighing after two weeks of treatment.

[4] = tested on: Echinochloa crus-galli; assay: Post-emergence herbicidal inhibition assay, EC; assay type: in vivo; settings: for Loss of Weight (%) EC / Visual Evaluation EC: 300 g ai/ha spray, two weeks after treatment; for Loss of Weight (%) EC: fresh weighing
Experimental: as §2

[5] = tested on: Arabidopsis thaliana; assay: DMAPP rescue on Arabidopsis; assay type: in vivo; settings: FOS 40 mg/L; for rescue of developmental arrest and bleaching by DMAPP (change of pixel values): 13e 20 mg/L, t-test
Experimental: The DMAPP rescue on Arabidopsis was conducted using the afore-mentioned culture conditions. […] To one of the two species in each group, an additional 150 μg of DMAPP (Aladdin) was added. After 10 days of cultivation, the green channel pixel values of Arabidopsis in each well were measured. A two-tailed paired Student’s t-test was used to compare the two species within the same group, and p < 0.05 indicates a statistically significant difference.

[6] = tested on: MtDXR; design: method as in PMID 21824775; settings: cited from earlier work
[7] = target: recombinant E. coli DXR (EcDXR) (Escherichia coli, UniProt P45568); assay: biochemical; settings: for inhibition at 100 µM: read-out: InR (%) on DXR enzyme
[8] = tested on: Arabidopsis thaliana; assay: Arabidopsis growth inhibition assay (24-well plates, green channel pixel value); settings: for EC50 / pest or weed control at 100 µg/mL: Arabidopsis thaliana, 240 h; for EC50: read-out: EC50 against Arabidopsis growth; for pest or weed control at 100 µg/mL: read-out: InR (%) against Arabidopsis
[9] = root, 7 days, read-out: EC50 BN Root
[10] = stalk, 7 days, read-out: EC50 BN Stalk
[11] = root, 7 days, read-out: EC50 EC Root
[12] = stalk, 7 days, read-out: EC50 EC Stalk

Sequence of recombinant E. coli DXR (EcDXR) (P45568 whole entry): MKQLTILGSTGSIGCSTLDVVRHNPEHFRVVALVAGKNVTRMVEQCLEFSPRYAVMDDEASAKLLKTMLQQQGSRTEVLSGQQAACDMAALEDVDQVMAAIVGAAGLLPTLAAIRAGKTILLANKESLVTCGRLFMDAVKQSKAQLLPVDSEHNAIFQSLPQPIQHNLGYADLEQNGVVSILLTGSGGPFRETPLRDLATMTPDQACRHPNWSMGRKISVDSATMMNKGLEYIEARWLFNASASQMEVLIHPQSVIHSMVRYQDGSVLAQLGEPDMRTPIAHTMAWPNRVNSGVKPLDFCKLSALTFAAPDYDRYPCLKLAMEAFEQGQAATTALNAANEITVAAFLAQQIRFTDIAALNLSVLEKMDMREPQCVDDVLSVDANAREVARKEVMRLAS

SMILES | EC50 [1, 9] [µg/mL] | EC50 [1, 10] [µg/mL] | EC50 [2, 11] [µg/mL] | EC50 [2, 12] [µg/mL] | Loss of Weight (%) AR [3] [%] | Visual Evaluation AR [3] | Loss of Weight (%) EC [4] [%] | Visual Evaluation EC [4] | rescue of developmental arrest and bleaching by DMAPP (change of pixel values) ([5]; DMAPP 150 mg/L) | inhibition at 100 µM [7] [%] | EC50 [8] [µg/mL] | pest or weed control at 100 µg/mL [8] [%] | Relative activity ratio (BN root) [1] [fold] | Relative activity ratio (BN stalk) [1] [fold] | Relative activity ratio (EC root) [2] [fold] | Relative activity ratio (EC stalk) [2] [fold] | also measured
O=CN(O)CCCP(=O)(O)O [FOS, Fosmidomycin, reference compound] | 34.7 (≈ 190 µM) | 32.9 (≈ 180 µM) | 40.2 (≈ 220 µM) | 38.4 (≈ 210 µM) | 31.5 | + (“+”: ≥20%) | 27.4 | + (“+”: ≥20%) | rescued | 98.7 | 27.5 ± 3.1 (≈ 150 µM) | 86.8 | – | – | – | – | green channel pixel value of Arabidopsis images, without DMAPP ([5]; 10 days): 32,789; green channel pixel value of Arabidopsis images, with DMAPP ([5]; DMAPP 150 mg/L, 10 days): 54,164; IC50 [6]: 0.08 µM
Cc1onc(O)c1CCP(=O)(O)O [Compound 6a] | – | – | – | – | 35.6 | + (“+”: ≥20%) | 30.8 | + (“+”: ≥20%) | – | 15.8 | 28.6 ± 3.9 (≈ 138 µM) | 90.4 | 2.0 | 3.1 | 1.7 | 2.0 | EC50 ([1]; read-out: EC50 BN Root): 17.3 µg/mL (≈ 83.5 µM); EC50 ([1]; read-out: EC50 BN Stalk): 10.5 µg/mL (≈ 50.7 µM); EC50 ([2]; read-out: EC50 EC Root): 24 µg/mL (≈ 116 µM); EC50 ([2]; read-out: EC50 EC Stalk): 18.9 µg/mL (≈ 91.3 µM)
O=P(O)(O)C(Cc1c(O)noc1C(F)(F)F)P(=O)(O)O [Compound 13e] | 10.7 (≈ 31.4 µM) | 2.3 (≈ 6.74 µM) | 7.4 (≈ 21.7 µM) | 4.1 (≈ 12 µM) | 70.3 | +++ (“+++”: ≥60%) | 53.5 | ++ (“++”: ≥40%) | did not show a significant increase | 54.9 | 7.8 ± 1.2 (≈ 22.9 µM) | 100 | 3.2 | 14.3 | 5.4 | 9.4 | fold more active than FOS, inhibition rate on EC via fresh weighing ([4]; post-emergence, 300 g ai/ha): 1.0 fold; fold inhibitory activity on Arabidopsis relative to FOS ([8]; from EC50 values): 3.7 fold
CC(C)c1onc(O)c1CC(P(=O)(O)O)P(=O)(O)O [Compound 13d] | 25.2 (≈ 80 µM) | 11 (≈ 34.9 µM) | 27.2 (≈ 86.3 µM) | 13.5 (≈ 42.8 µM) | 45.7 | ++ (“++”: ≥40%) | 34.9 | + (“+”: ≥20%) | – | 14 | 23.1 ± 1.9 (≈ 73.3 µM) | 93.2 | 1.4 | 3.0 | 1.5 | 2.8 | –
CC1(C)CON(CCCC(P(=O)(O)O)P(=O)(O)O)C1=O [Compound 20] | 34.6 (≈ 104 µM) | 8.2 (≈ 24.8 µM) | 40 (≈ 121 µM) | 25.2 (≈ 76.1 µM) | 23.6 | + (“+”: ≥20%) | 22.9 | + (“+”: ≥20%) | – | 29.5 | > 100 | 47.9 | 1.0 | 4.0 | 1.0 | 1.5 | melting point: > 250 °C
Cc1onc(O)c1CC(P(=O)(O)O)P(=O)(O)O [Compound 13a] | 26.9 (≈ 93.7 µM) | 8.5 (≈ 29.6 µM) | 27.1 (≈ 94.4 µM) | 10.2 (≈ 35.5 µM) | 52.3 | ++ (“++”: ≥40%) | 35.8 | + (“+”: ≥20%) | – | 60.2 | 21.6 ± 3.8 (≈ 75.2 µM) | 100 | 1.3 | 3.9 | 1.5 | 3.8 | IC50 [7]: 77.9 µM

Source: PMC10673511, “Design, Synthesis and Bioactivity Evaluation of Heterocycle-Containing Mono- and Bisphosphonic Acid Compounds” (Molecules, 2023)
